Measured values: patent US20050203086A1, “Methods of treatment using an EP2 selective receptor agonist” (Pfizer Inc., priority 2004, published 2005)

Each compound was assayed against T1, prostaglandin E2 type 2 (EP2) receptors (Homo sapiens, UniProt P43116) (assay: Assay for Binding to Prostaglandin E2 Receptors (3H-prostaglandin E2 displacement, membranes of transfected 293S cells)). Settings: concentration displacing 50% of specifically bound 3H-prostaglandin E2, 1 hour at 25° C.
T1 construct: These full length receptors are used to prepare 293S cells expressing the EP1, EP2, EP3 and EP4 receptors; expressed in transfected cells; membranes
T1 sequence (P43116 whole entry): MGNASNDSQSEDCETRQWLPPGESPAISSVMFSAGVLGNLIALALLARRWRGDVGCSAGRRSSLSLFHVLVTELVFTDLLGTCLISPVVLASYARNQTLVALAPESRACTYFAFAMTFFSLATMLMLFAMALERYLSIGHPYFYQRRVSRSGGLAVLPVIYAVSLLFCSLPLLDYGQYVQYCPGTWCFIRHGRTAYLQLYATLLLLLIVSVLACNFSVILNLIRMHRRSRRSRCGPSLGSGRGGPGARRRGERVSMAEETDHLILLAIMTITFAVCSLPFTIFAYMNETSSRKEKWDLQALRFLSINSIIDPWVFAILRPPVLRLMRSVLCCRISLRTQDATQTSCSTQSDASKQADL
Protocol: Membrane Preparation: All operations are performed at […]. Transfected cells expressing prostaglandin E2 type 1 receptors (EP1), type 2 (EP2), type 3 (EP3) or type 4 (EP4) receptors are harvested and suspended to 2 million cells per ml in Buffer A [50 mM Tris-HCl (pH 7.4), 10 mM MgCl2, 1 mM EDTA, 1 mM Pefabloc peptide, (Boehringer Mannheim Corp., Indianapolis, Ind.), 10 uM Phosporamidon peptide, (Sigma, St. Louis, Mo.), 1 uM pepstatin A peptide, (Sigma, St. Louis, Mo.), 10 uM elastatinal peptide, (Sigma, St. Louis, Mo.), 100 uM antipain peptide, (Sigma, St. Louis, Mo.)]. The cells are lysed by sonification with a Branson Sonifier (Model #250, Branson Ultrasonics Corporation, Danbury, Conn.) in 2 fifteen second bursts. Unlysed cells and debris are removed by centrifugation, at 100×g for 10 min. Membranes are then harvested by centrifugation at 45,000×g for 30 minutes. […] Resuspended membranes are then stored frozen at −80° C. until use.
Binding Assay: Frozen membranes prepared as above are thawed and diluted to 1 mg protein per ml in Buffer A above. […] The membranes with bound ^3H-prostaglandin E2 are trapped by the filter, while the buffer and unbound ^3H-prostaglandin E2 pass through the filter into waste. Each sample is then washed 3 times with 3 ml of [50 mM Tris-HCl (pH 7.4), 10 mM MgCl2, 1 mM EDTA]. The filters are then dried by heating in a microwave oven.
Typically, PCR (polymerase chain reaction) primers corresponding to the 5′ and 3′ ends of the published full length receptor are made according to the well known methods disclosed above and are used in an RT-PCR reaction using the total RNA from human kidney (for EP1), human lung (for EP2), human lung (for EP3) or human lymphocytes (for EP4) as a source. PCR products are cloned by the TA overhang method into pCR2.1 (Invitrogen, Carlsbad, Calif.) and identity of the cloned receptor is confirmed by DNA sequencing.
Stable cell lines expressing the receptor are established following selection of transfected cells with G418.

Row | Compound | IC50
1 | O=C(O)c1ccc(CCCN(CCCc2cccc(Cl)c2)C(=O)c2cccnc2)s1 [Example 5, 5-(3-((3-(3-Chloro-phenyl)-propyl)-(pyridine-3-carbonyl)-amino)-propyl)-thiophene-2-carboxylic acid] | 0.98 µM
2 | COc1ccc(S(=O)(=O)N(CCCc2cccc(Cl)c2)CCCc2ccc(C(=O)O)s2)cc1 [Example 4a, 5-(3-((3-(3-Chloro-phenyl)-propyl)-(4-methoxy-benzenesulfonyl)-amino)-propyl)-thiophene-2-carboxylic acid] | 0.795 µM
3 | O=C(O)Cc1cccc(CN(Cc2cc3ccccc3o2)S(=O)(=O)c2cccnc2)c1 [Example 1q, (3-((Benzofuran-2-ylmethyl-(pyridine-3-sulfonyl)-amino)-methyl)-phenyl)-acetic acid] | 0.039 µM
4 | CCCNC(=O)N(CCCc1cccc(Cl)c1)CCCc1ccc(C(=O)O)s1 [Example 7d, 5-(3-(1-(3-(3-Chloro-Phenyl)-propyl)-3-propyl-ureido)-propyl)-thiophene-2-carboxylic acid] | 0.052 µM
5 | CNS(=O)(=O)c1ccc(CN(Cc2cccc(CC(=O)O)c2)S(=O)(=O)c2cccnc2)cc1 [Example 1h, (3-(((4-Methylsulfamoyl-benzyl)-(pyridine-3-sulfonyl)-amino)-methyl)-phenyl)-acetic acid] | 0.745 µM
6 | Cn1cnc(S(=O)(=O)N(Cc2ccc(-c3nccs3)cc2)Cc2cccc(CC(=O)O)c2)c1 [Example 1v, (3-(((1-Methyl-1H-imidazole-4-sulfonyl)-(4-thiazol-2-yl-benzyl)-amino)-methyl)-phenyl)-acetic acid] | 0.009 µM
7 | Cn1cnc(S(=O)(=O)N(Cc2ccc(-c3ncccn3)cc2)Cc2cccc(CC(=O)O)c2)c1 [Example 1al, (3-(((1-Methyl-1H-imidazole-4-sulfonyl)-(4-pyrimidin-2-yl-benzyl)-amino)-methyl)-phenyl)-acetic acid] | 0.017 µM
8 | O=C(O)Cc1cccc(CN(Cc2ccc(-c3ccccc3)o2)S(=O)(=O)c2cccnc2)c1 [Example 1c, (3-(((5-Phenyl-furan-2-ylmethyl)-(pyridine-3-sulfonyl)-amino)-methyl)-phenyl)-acetic acid] | 0.024 µM
9 | CN(C)c1ccc(CN(Cc2cccc(OCC(=O)O)c2)S(=O)(=O)c2cccnc2)cc1 [Example 1z, (3-(((4-Dimethylamino-benzyl)-(pyridine-3-sulfonyl)-amino)-methyl)-phenoxy)-acetic acid] | 0.019 µM
10 | 5-(3-(Benzenesulfonyl-(3-(3-chloro-phenyl)-propyl)-amino)-propyl)-thiophene-2-carboxylic acid [Example 4c] | 0.885 µM
11 | O=C(O)Cc1cccc(CN(Cc2ccc(-c3nccs3)cc2)S(=O)(=O)c2cccnc2)c1 [Example 1u, (3-(((Pyridine-3-sulfonyl)-(4-thiazol-2-yl-benzyl)-amino)-methyl)-phenyl)-acetic acid] | 0.007 µM
12 | CCCCc1ccc(CN(Cc2cccc(CC(=O)O)c2)S(=O)(=O)c2ccc(C#N)cc2)cc1 [Example 1l, (3-(((4-Butyl-benzyl)-(4-cyano-benzenesulfonyl)-amino)-methyl)-phenyl)-acetic acid] | 0.6 µM
13 | CCCCc1ccc(CN(Cc2cccc(CC(=O)O)c2)S(=O)(=O)c2cccc(F)c2)cc1 [Example 1m, (3-(((4-Butyl-benzyl)-(3-fluoro-benzenesulfonyl)-amino)-methyl)-phenyl)-acetic acid] | 0.245 µM
14 | O=C(O)c1ccc(CCCN(CCCc2cccc(Cl)c2)S(=O)(=O)CCCCNC(=O)c2ccccc2C(=O)O)s1 [Example 6c, 5-(3-((4-(2-Carboxy-benzoylamino)-butane-1-sulfonyl)-(3-(3-chloro-phenyl)-propyl)-amino)-propyl)-thiophene-2-carboxylic acid] | 0.3 µM
15 | O=C(O)c1ccc(CCCN(CCCc2cccc(Cl)c2)S(=O)(=O)c2ccc3ccccc3c2)s1 [Example 4f, 5-(3-((3-(3-Chloro-phenyl)-propyl)-(naphthalene-2-sulfonyl)-amino)-propyl)-thiophene-2-carboxylic acid] | 0.705 µM
16 | O=C(O)c1ccc(CCCN(CCCc2cccc(Cl)c2)C(=O)Nc2cccc(Cl)c2Cl)s1 [Example 7f, 5-(3-(1-(3-(3-Chloro-phenyl)-propyl)-3-(2,3-dichloro-phenyl)-ureido)-propyl) thiophene-2-carboxylic acid] | 0.344 µM
17 | CCCCc1ccc(CN(Cc2cccc(CC(=O)O)c2)S(=O)(=O)c2csc(-c3ccccn3)c2)cc1 [Example 1n, (3-(((4-Butyl-benzyl)-(5-pyridin-2-yl-thiophene-3-sulfonyl)-amino)-methyl)-phenyl)-acetic acid] | 0.14 µM

Row | Compound | IC50
18 | O=C(O)COc1cccc(CN(Cc2ccc(-c3nccs3)cc2)S(=O)(=O)c2cccnc2)c1 [Example 3b, (3-(((Pyridine-3-sulfonyl)-(4-thiazol-2-yl-benzyl)-amino)-methyl)-phenoxy)-acetic acid.2TFA] | 0.00783 µM
19 | O=C(O)c1ccc(CCCN(CCCc2cccc(Cl)c2)S(=O)(=O)c2cccc3nsnc23)s1 [Example 4b, 5-(3-((Benzo[1,2.5]thiadiazole-4-sulfonyl)-(3-(3-chloro-phenyl)-propyl)-amino)-propyl)-thiophene-2-carboxylic acid] | 0.44 µM
20 | CCCCc1ccc(CN(Cc2cccc(CC(=O)O)c2)S(=O)(=O)c2ccc(NC(C)=O)cc2)cc1 [Example 9c, (3-(((4-Acetylamino-benzenesulfonyl)-(4-butyl-benzyl)-amino)-methyl)-phenyl)-acetic acid] | 0.49 µM
21 | CCCCc1ccc(CN(CCCCCCC(=O)O)S(=O)(=O)c2cccnc2)cc1 [Example 1, 7-((4-Butyl-benzyl)-(pyridine-3-sulfonyl)-amino)-heptanoic acid] | 0.395 µM
22 | O=C(O)Cc1cccc(CN(Cc2cc(Cl)cs2)S(=O)(=O)c2cccnc2)c1 [Example 1j] | 0.385 µM
23 | O=C(O)Cc1cccc(CN(Cc2ccc(C3CCCCC3)cc2)S(=O)(=O)c2cccnc2)c1 [Example 1ad, (3-(((4-Cyclohexyl-benzyl)-(pyridine-3-sulfonyl)-amino)-methyl)-phenyl)-acetic acid] | 0.195 µM
24 | O=C(O)Cc1cccc(CN(Cc2ccc3c(c2)OCO3)S(=O)(=O)c2cccnc2)c1 [Example 1ah, (3-((Benzo[1,3]dioxol-5-ylmethyl-(pyridine-3-sulfonyl)-amino)-methyl)-phenyl)-acetic acid] | 0.181 µM
25 | O=C(O)c1ccc(CCCN(CCCc2cccc(Cl)c2)C(=O)Nc2ccc(Cl)c(Cl)c2)s1 [Example 7c, 5-(3-(1-(3-(3-Chloro-phenyl)-propyl)-3-(3,4-dichloro-phenyl)-ureido)-propyl)-thiophene-2-carboxylic acid] | 0.26 µM
26 | CCC(C)(C)c1ccc(S(=O)(=O)N(CCCc2cccc(Cl)c2)CCCc2ccc(C(=O)O)s2)cc1 [Example 6g, 5-(3-((3-(3-Chloro-phenyl)-propyl)-(4-(1,1-dimethyl-propyl)-benzenesulfonyl)-amino)-Propyl)-thiophene-2-carboxylic acid] | 0.35 µM
27 | CC(C)OC(=O)N(CCCc1cccc(Cl)c1)CCCc1ccc(C(=O)O)s1 [Example 8b, 5-(3-((3-(3-Chloro-phenyl)-propyl)-isopropoxycarbonyl-amino)-propyl)-thiophene-2-carboxylic acid] | 0.266 µM
28 | O=C(O)c1ccc(CCCN(CCCc2cccc(Cl)c2)S(=O)(=O)c2cccc3ccccc23)s1 [Example 4g, 5-(3-((3-(3-Chloro-phenyl)-propyl)-(naphthalene-1-sulfonyl)-amino)-propyl)-thiophene-2-carboxylic acid] | 0.72 µM
29 | CCCOc1ccc(CN(Cc2cccc(CC(=O)O)c2)S(=O)(=O)c2cccnc2)cc1O [Example 1f, (3-(((3-Hydroxy-4-propoxy-benzyl)-(pyridine-3-sulfonyl)-amino)-methyl)-phenyl)-acetic acid] | 0.052 µM
30 | (3-(((4-Butyl-benzyl)-(pyridine-3-sulfonyl)-amino)-methyl)-phenyl)-acetic acid [Example 9] | 0.017 µM
31 | O=C(O)COc1cccc(CN(CCOc2cc(Cl)cc(Cl)c2)S(=O)(=O)c2cccnc2)c1 [Example 1y, (3-(((2-(3.5-Dichloro-phenoxy)-ethyl)-(pyridine-3-sulfonyl)-amino)-methyl)-phenoxy)-acetic acid] | 0.013 µM
32 | O=C(O)c1ccc(CCCN(CCCc2cccc(Cl)c2)S(=O)(=O)Cc2ccccc2)s1 [Example 4d, 5-(3-((3-(3-Chloro-phenyl)-propyl)-phenylmethanesulfonyl-amino)-propyl)-thiophene-2-carboxylic acid] | 0.175 µM
33 | COc1ccc(OC)c(S(=O)(=O)N(CCCc2cccc(Cl)c2)CCCc2ccc(C(=O)O)s2)c1 [Example 6i, 5-(3-((3-(3-Chloro-phenyl)-propyl)-(2,5-dimethoxy-benzenesulfonyl)-amino)-propyl)-thiophene-2-carboxylic acid] | 0.27 µM
